Measurements: patent US11110082B2, “Tyrosine kinase inhibitors” (Rigel Pharmaceuticals, Inc., priority 2016, dated 2021)

biological target: T1, MerTK (Homo sapiens, UniProt Q12866); assay: PAKT HTRF-HUVEC assay (pAkt Ser473 HTRF after anti-human MerTK-XL stimulation); type: cell-based; conditions: HUVEC cells, 1 hour compound, stimulated with anti-human MerTK-XL 1 ug/mL for 10 minutes, read-out: inhibition of MerTK
T1 construct: Seed HUVECs (10K cells/well) in EBM-2 complete media; host or cells: HUVEC (primary human umbilical vein endothelial cells)
T1 sequence (Q12866 21-999): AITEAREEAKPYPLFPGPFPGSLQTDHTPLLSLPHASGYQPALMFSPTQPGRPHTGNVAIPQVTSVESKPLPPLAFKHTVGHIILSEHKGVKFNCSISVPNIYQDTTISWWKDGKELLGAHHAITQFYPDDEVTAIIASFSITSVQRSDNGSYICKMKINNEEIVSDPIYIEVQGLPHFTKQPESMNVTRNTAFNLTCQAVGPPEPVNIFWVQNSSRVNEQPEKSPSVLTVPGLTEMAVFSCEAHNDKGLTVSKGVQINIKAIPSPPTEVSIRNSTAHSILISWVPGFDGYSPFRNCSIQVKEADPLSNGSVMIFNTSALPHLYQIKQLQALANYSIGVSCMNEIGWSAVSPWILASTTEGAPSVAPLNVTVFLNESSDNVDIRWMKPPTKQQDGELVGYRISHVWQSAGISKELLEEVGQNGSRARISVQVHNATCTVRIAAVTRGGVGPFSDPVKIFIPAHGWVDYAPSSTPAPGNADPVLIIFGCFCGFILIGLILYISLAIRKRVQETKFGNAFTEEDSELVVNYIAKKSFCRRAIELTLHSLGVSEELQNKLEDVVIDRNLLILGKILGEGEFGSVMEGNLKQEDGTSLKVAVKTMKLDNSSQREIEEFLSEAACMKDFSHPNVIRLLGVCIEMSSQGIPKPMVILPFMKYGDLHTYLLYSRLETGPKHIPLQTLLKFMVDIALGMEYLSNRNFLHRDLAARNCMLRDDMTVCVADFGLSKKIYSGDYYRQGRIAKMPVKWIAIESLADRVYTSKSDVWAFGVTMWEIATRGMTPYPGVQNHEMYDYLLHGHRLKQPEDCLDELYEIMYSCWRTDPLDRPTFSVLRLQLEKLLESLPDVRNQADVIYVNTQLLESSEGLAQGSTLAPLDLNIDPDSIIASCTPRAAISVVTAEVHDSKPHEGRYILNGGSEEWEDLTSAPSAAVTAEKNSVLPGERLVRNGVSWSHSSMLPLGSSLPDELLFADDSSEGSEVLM
How it was run: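 Akt Ser473 phosphorylation measured by HTRF in lysates of serum-starved HUVECs. Cells received compound for 1 h at 37° C before a 10-min challenge with antibody-cross-linked anti-MerTK (1 ug/mL final); EC50 derived by curve fit.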

How did the EC50 turn out when `CC(C)N1CCN(c2ccc3c(c2)c(=O)n([C@H]2CC[C@H](O)CC2)c2nc(NCC4CC4)ncc32)CC1` [Compound 176] was run?
The EC50 was 97.5 nM.

For `O=c1c2cc(N3CCN(C4CC4)CC3)ccc2c2cnc(NCC3CC3)nc2n1[C@H]1CC[C@H](O)CC1` [Compound 177], which EC50 is on record?
Its EC50 is 483 nM.

For `O=c1c2cc(N3CCN(C4COC4)CC3)ccc2c2cnc(NCC3CC3)nc2n1[C@H]1CC[C@H](O)CC1` [Compound 178], which EC50 is on record?
The EC50 was 380 nM.

`O=c1c2cc(CN3CCN4CCC3CC4)ccc2c2cnc(NCC3CC3)nc2n1[C@H]1CC[C@H](O)CC1` [Compound 179] was tested. Which EC50 did it give?
Its EC50 is 115 nM.

Which EC50 does the source give for `CN1CCN(Cc2ccc3c(c2)c(=O)n([C@H]2CC[C@H](OC(N)=O)CC2)c2nc(NCC4CC4)ncc32)CC1` [Compound 181] here?
Its EC50 is 292 nM.

For `CC(C)(C)N1CCN(Cc2ccc3c(c2)c(=O)n([C@H]2CC[C@H](O)CC2)c2nc(NCC4CC4)ncc32)CC1` [Compound 182], which EC50 is on record?
The EC50 was 7.6 nM.

`CN1CCN(Cc2ccc3c(c2)c(=O)n([C@H]2CC[C@H](OC(N)=O)CC2)c2nc(N(CC4CC4)C(N)=O)ncc32)CC1` [Compound 183] was tested. Which EC50 did it give?
The EC50 was 13800 nM.

How did the EC50 turn out when `CN1CCN(Cc2ccc3c(c2)c(=O)n([C@H]2CC[C@H](NC(=O)OC(C)(C)C)CC2)c2nc(NCC4CC4)ncc32)CC1` [Compound 184, trans-tert-Butyl (4-(3-((cyclopropylmethyl)amino)-8-((4-methylpiperazin-1-yl)methyl)-6-oxopyrimido[4,5-c]isoquinolin-5(6H)-yl)cyclohexyl)carbamate] was run?
Its EC50 is 5140 nM.

Which EC50 does the source give for `CN1CCN(Cc2ccc3c(c2)c(=O)n([C@H]2CC[C@H](N)CC2)c2nc(NCC4CC4)ncc32)CC1` [Compound 185, trans-5-(4-aminocyclohexyl)-3-((cyclopropylmethyl)amino)-8-((4-methylpiperazin-1-yl)methyl)pyrimido[4,5-c]isoquinolin-6(5H)-one] here?
Its EC50 is 28.7 nM.

Which EC50 does the source give for `O=c1c2cc(CN3CCC4(CC3)COC4)ccc2c2cnc(NCC3CC3)nc2n1[C@H]1CC[C@H](O)CC1` [Compound 186, trans-8-((2-Oxa-7-azaspiro[3.5]nonan-7-yl)methyl)-3-((cyclopropylmethyl)amino)-5-(4-hydroxycyclohexyl)pyrimido[4,5-c]isoquinolin-6(5H)-one] here?
The EC50 was 45.4 nM.

How did the EC50 turn out when `CN1CCN(Cc2ccc3c(c2)c(=O)n(C2CCN(C(=O)OC(C)(C)C)CC2)c2nc(NCC4CC4)ncc32)CC1` [Compound 188] was run?
Its EC50 is 11300 nM.

How did the EC50 turn out when `CN1CCC(Nc2ccc3c(c2)c(=O)n([C@H]2CC[C@H](O)CC2)c2nc(NCC4CC4)ncc32)CC1` [Compound 189, trans-3-((Cyclopropylmethyl)amino)-5-(4-hydroxycyclohexyl)-8-((1-methylpiperidin-4-yl)amino)pyrimido[4,5-c]isoquinolin-6(5H)-one] was run?
Its EC50 is 76.4 nM.

With `CN1CCN(Cc2ccc3c(c2)c(=O)n([C@H]2CC[C@H](NC(=O)CC#N)CC2)c2nc(NCC4CC4)ncc32)CC1` [Compound 190, trans-2-Cyano-N-(4-(3-((cyclopropylmethyl)amino)-8-((4-methylpiperazin-1-yl)methyl)-6-oxopyrimido[4,5-c]isoquinolin-5(6H)-yl)cyclohexyl)acetamide] as the compound, how does the EC50 read?
The EC50 was 73 nM.

Which EC50 does the source give for `CN1CCN(Cc2ccc3c(c2)c(=O)n(C2CCNCC2)c2nc(NCC4CC4)ncc32)CC1` [Compound 191] here?
The EC50 was 875 nM.

For `CN1CCN(Cc2ccc3c(c2)c(=O)n(C2CCN(C(=O)CC#N)CC2)c2nc(NCC4CC4)ncc32)CC1` [Compound 192], which EC50 is on record?
Its EC50 is 4040 nM.

How did the EC50 turn out when `CC(C)Nc1ncc2c3ccc(Cl)cc3c(=O)n([C@H]3CC[C@H](O)CC3)c2n1` [Compound 193] was run?
The EC50 was 957 nM.

`O=c1c2cc(CN3CCN(c4ccncc4)CC3)ccc2c2cnc(NCC3CC3)nc2n1[C@H]1CC[C@H](O)CC1` [Compound 194] was tested. Which EC50 did it give?
Its EC50 is 33.6 nM.

With `CC(C)Nc1ncc2c3ccc(CN4CCN(C)CC4)cc3c(=O)n([C@H]3CC[C@H](O)CC3)c2n1` [Compound 195, trans-5-(4-Hydroxycyclohexyl)-3-(isopropylamino)-8-((4-methylpiperazin-1-yl)methyl)pyrimido[4,5-c]isoquinolin-6(5H)-one] as the compound, how does the EC50 read?
The EC50 was 72.1 nM.

`CN1CCN(Cc2ccc3c(c2)c(=O)n([C@H]2CC[C@H](O)CC2)c2nc(NC4CC4)ncc32)CC1` [Compound 196, trans-3-(Cyclopropylamino)-5-(4-hydroxycyclohexyl)-8-((4-methylpiperazin-1-yl)methyl)pyrimido[4,5-c]isoquinolin-6(5H)-one] was tested. Which EC50 did it give?
The EC50 was 240 nM.

For `CCC(F)(F)CNc1ncc2c3ccc(CN4CCC5(CC4)COC5)cc3c(=O)n([C@H]3CC[C@H](O)CC3)c2n1` [Compound 197, trans-8-((2-Oxa-7-azaspiro[3.5]nonan-7-yl)methyl)-3-((2,2-difluorobutyl)amino)-5-(4-hydroxycyclohexyl)pyrimido[4,5-c]isoquinolin-6(5H)-one], which EC50 is on record?
Its EC50 is 97.7 nM.

How did the EC50 turn out when `CCC(F)(F)CNc1ncc2c3ccc(CN4CCN(C(C)(C)C)CC4)cc3c(=O)n([C@H]3CC[C@H](O)CC3)c2n1` [Compound 198, trans-8-((4-(tert-Butyl)piperazin-1-yl)methyl)-3-((2,2-difluorobutyl)amino)-5-(4-hydroxycyclohexyl)pyrimido[4,5-c]isoquinolin-6(5H)-one] was run?
Its EC50 is 13.2 nM.

With `CC(C)(C)N1CCN(Cc2ccc3c(c2)c(=O)n([C@H]2CC[C@H](O)CC2)c2nc(NC4CC(F)(F)C4)ncc32)CC1` [Compound 199, trans-8-((4-(tert-Butyl)piperazin-1-yl)methyl)-3-((3,3-difluorocyclobutyl)amino)-5-(4-hydroxycyclohexyl)pyrimido[4,5-c]isoquinolin-6(5H)-one] as the compound, how does the EC50 read?
The EC50 was 10.8 nM.

With `O=C(O)C1CCN(Cc2ccc3c(c2)c(=O)n([C@H]2CC[C@H](O)CC2)c2nc(NCC4CC4)ncc32)CC1` [Compound 200, trans-1-((3-((Cyclopropylmethyl)amino)-5-(4-hydroxycyclohexyl)-6-oxo-5,6-dihydropyrimido[4,5-c]isoquinolin-8-yl)methyl)piperidine-4-carboxylic acid] as the compound, how does the EC50 read?
Its EC50 is 11300 nM.

Which EC50 does the source give for `CC(C)(C)OC(=O)C1CCN(Cc2ccc3c(c2)c(=O)n([C@H]2CC[C@H](O)CC2)c2nc(NCC4CC4)ncc32)CC1` [Compound 201, trans-tert-Butyl 1-((3-((cyclopropylmethyl)amino)-5-(4-hydroxycyclohexyl)-6-oxo-5,6-dihydropyrimido[4,5-c]isoquinolin-8-yl)methyl)piperidine-4-carboxylate] here?
The EC50 was 72.5 nM.

Which EC50 does the source give for `O=c1c2cc(CN3CCCCC3)ccc2c2cnc(NCC3CC3)nc2n1[C@H]1CC[C@H](O)CC1` [Compound 202, trans-3-((Cyclopropylmethyl)amino)-5-(4-hydroxycyclohexyl)-8-(piperidin-1-ylmethyl)pyrimido[4,5-c]isoquinolin-6(5H)-one] here?
Its EC50 is 47.3 nM.

Which EC50 does the source give for `NC(=O)C1CCN(Cc2ccc3c(c2)c(=O)n([C@H]2CC[C@H](O)CC2)c2nc(NCC4CC4)ncc32)CC1` [Compound 203, trans-1-((3-((Cyclopropylmethyl)amino)-5-(4-hydroxycyclohexyl)-6-oxo-5,6-dihydropyrimido[4,5-c]isoquinolin-8-yl)methyl)piperidine-4-carboxamide] here?
Its EC50 is 167 nM.

With `N#CC1CCN(Cc2ccc3c(c2)c(=O)n([C@H]2CC[C@H](O)CC2)c2nc(NCC4CC4)ncc32)CC1` [Compound 204, trans-1-((3-((Cyclopropylmethyl)amino)-5-(4-hydroxycyclohexyl)-6-oxo-5,6-dihydropyrimido[4,5-c]isoquinolin-8-yl)methyl)piperidine-4-carbonitrile] as the compound, how does the EC50 read?
The EC50 was 57.7 nM.

Which EC50 does the source give for `N[C@H]1CC[C@H](n2c(=O)c3cc(Cl)ccc3c3cnc(NCC4CC4)nc32)CC1` [Compound 205] here?
Its EC50 is 293 nM.

How did the EC50 turn out when `CC(C)(C)OC(=O)N1CCC(Cc2ccc3c(c2)c(=O)n([C@H]2CC[C@H](O)CC2)c2nc(NCC4CC4)ncc32)CC1` [Compound 206] was run?
The EC50 was 1280 nM.

`O=c1c2cc(CC3CCNCC3)ccc2c2cnc(NCC3CC3)nc2n1[C@H]1CC[C@H](O)CC1` [Compound 207, trans-3-((Cyclopropylmethyl)amino)-5-(4-hydroxycyclohexyl)-8-(piperidin-4-ylmethyl)pyrimido[4,5-c]isoquinolin-6(5H)-one] was tested. Which EC50 did it give?
Its EC50 is 537 nM.

How did the EC50 turn out when `O=c1c2cc(OCCCN3CCOCC3)ccc2c2cnc(NCC3CC3)nc2n1[C@H]1CC[C@H](O)CC1` [Compound 208, trans-3-((Cyclopropylmethyl)amino)-5-(4-hydroxycyclohexyl)-8-(3-morpholinopropoxy)pyrimido[4,5-c]isoquinolin-6(5H)-one] was run?
Its EC50 is 415 nM.
